In patent publication US8618094B2, “Fused substituted aminopyrrolidine derivative” (Daiichi Sankyo Company, Limited, priority 2007, dated 2013):
Values after ≈ are worked out from the molar mass of the structure shown. Read-outs that look alike come from different tables or passages of the source.

How the values were obtained:
[1] = test system: E. cloacae 03400; assay: Antibacterial activity (MIC), standard method of the Japanese Society of Chemotherapy; type: cell-based; conditions: Enterobacter cloacae
Procedure: (§1) Antibacterial activity of the compounds of the present invention was measured in accordance with the standard method specified by the Japanese Society of Chemotherapy.

[2] = test system: E. coli NIHJ; assay: as above; type: cell-based; conditions: Escherichia coli
Procedure: as §1

[3] = test system: E. faecalis 19433; assay: as above; type: cell-based; conditions: Enterococcus faecalis
Procedure: as §1

[4] = test system: H. influenzae ATCC49247; assay: as above; type: cell-based; conditions: Haemophilus influenzae
Procedure: as §1

[5] = test system: K. pneumoniae TYPE 1; assay: as above; type: cell-based; conditions: Klebsiella pneumoniae, TYPE1
Procedure: as §1

[6] = test system: M(B). Caterrhalis ATCC25238; assay: as above; type: cell-based
Procedure: as §1

[7] = test system: P. aeruginosa PAO1; assay: as above; type: cell-based; conditions: Pseudomonas aeruginosa
Procedure: as §1

[8] = test system: P. mirabilis 08103; assay: as above; type: cell-based; conditions: Proteus mirabilis
Procedure: as §1

[9] = test system: S. aureus 870307; assay: as above; type: cell-based; conditions: Staphylococcus aureus
Procedure: as §1

[10] = test system: S. aureus FDA 209-P; assay: as above; type: cell-based; conditions: Staphylococcus aureus, FDA209
Procedure: as §1

[11] = test system: S. epidermidis 56500; assay: as above; type: cell-based; conditions: Staphylococcus epidermidis
Procedure: as §1

[12] = test system: S. marcescens 10100; assay: as above; type: cell-based; conditions: Serratia marcescens
Procedure: as §1

[13] = test system: S. pneumoniae 104835; assay: as above; type: cell-based; conditions: Streptococcus pneumoniae
Procedure: as §1

[14] = test system: S. pneumoniae J24; assay: as above; type: cell-based; conditions: Streptococcus pneumoniae
Procedure: as §1

[15] = test system: S. pyogenes JCM5674(ATCC12344); assay: as above; type: cell-based; conditions: Streptococcus pyogenes
Procedure: as §1

[16] = test system: mouse bone marrow; assay: Mouse bone marrow micronucleus test after intravenous administration; type: in vivo
Description: The compound represented by the formula 365 was confirmed to be positive for induction of micronuclei in a mouse bone marrow micronucleus test after intravenous administration.

[17] = Mouse phototoxicity test after intravenous administration; type: in vivo
[18] = H. influenzae ATCC49247 (first half of Table 2), read-out: MIC, H. influenzae ATCC49247
[19] = M(B). Caterrhalis ATCC25238 (first half of Table 2), read-out: MIC, M(B). Caterrhalis ATCC25238

Row | SMILES | MIC [1] | MIC [2] | MIC [3] | MIC [4, 18] | MIC [5] | MIC [6, 19] | MIC [7] | MIC [8] | MIC [9] | MIC [10] | MIC [11] | MIC [12] | MIC [13] | MIC [14] | MIC [15] | melting point | MIC ([4]; ATCC 25238 / ATCC 49247, H. influenzae ATCC25238 as printed (second half of Table 2), read-out: MIC, H. influenzae ATCC25238) | MIC ([6]; M(B). Caterrhalis [sic] ATCC49247 (Table 2), read-out: MIC, M(B). Caterrhalis ATCC49247) | induction of micronuclei [16] | phototoxicity [17]
1 | COc1c(N2C[C@H]3C4(CC4)C[C@@]3(N)C2)c(F)cc2c(=O)c(C(=O)O)cn([C@@H]3C[C@@H]3F)c12 [Example 10, 7-[(1S,5R)-1-Amino-6-spirocyclopropane-3-azabicyclo[3.2.0]heptan-3-yl]-1-[(1R,2S)-2-fluorocyclopropyl]-6-fluoro-1,4-dihydro-8-methoxy-4-oxoquinoline-3-carboxylic acid] | 0.025 µg/mL (≈ 0.0579 µM) | 0.025 µg/mL (≈ 0.0579 µM) | 0.1 µg/mL (≈ 0.232 µM) | 0.012 µg/mL (≈ 0.0278 µM) | 0.2 µg/mL (≈ 0.464 µM) | 0.025 µg/mL (≈ 0.0579 µM) | 0.78 µg/mL (≈ 1.81 µM) | 0.05 µg/mL (≈ 0.116 µM) | 0.1 µg/mL (≈ 0.232 µM) | 0.006 µg/mL (≈ 0.0139 µM) | 0.025 µg/mL (≈ 0.0579 µM) | 0.2 µg/mL (≈ 0.464 µM) | 0.2 µg/mL (≈ 0.464 µM) | 0.025 µg/mL (≈ 0.0579 µM) | 0.025 µg/mL (≈ 0.0579 µM) | 182 to 203 °C (dec.) |  |  |  | 
2 | N[C@@]12CCC[C@@H]1CN(c1c(F)cc3c(=O)c(C(=O)O)cn(C4CC4)c3c1F)C2 [formula 365, reference compound] |  |  |  |  |  |  |  |  |  |  |  |  |  |  |  |  |  |  | positive | positive

Continued by falling MIC [1], values first:

Row | MIC [1] | MIC [2] | MIC [3] | MIC [4, 18] | MIC [5] | MIC [6, 19] | MIC [7] | MIC [8] | MIC [9] | MIC [10] | MIC [11] | MIC [12] | MIC [13] | MIC [14] | MIC [15] | melting point | MIC ([4]; ATCC 25238 / ATCC 49247, H. influenzae ATCC25238 as printed (second half of Table 2), read-out: MIC, H. influenzae ATCC25238) | MIC ([6]; M(B). Caterrhalis [sic] ATCC49247 (Table 2), read-out: MIC, M(B). Caterrhalis ATCC49247) | SMILES | induction of micronuclei [16] | phototoxicity [17]
3 | 0.025 µg/mL (≈ 0.0572 µM) | 0.006 µg/mL (≈ 0.0137 µM) | 0.2 µg/mL (≈ 0.457 µM) | ≤ 0.003 µg/mL | 0.05 µg/mL (≈ 0.114 µM) | 0.025 µg/mL (≈ 0.0572 µM) | 0.78 µg/mL (≈ 1.78 µM) | 0.025 µg/mL (≈ 0.0572 µM) | 0.39 µg/mL (≈ 0.892 µM) | 0.012 µg/mL (≈ 0.0274 µM) | 0.05 µg/mL (≈ 0.114 µM) | 0.2 µg/mL (≈ 0.457 µM) | 0.39 µg/mL (≈ 0.892 µM) | 0.05 µg/mL (≈ 0.114 µM) | 0.05 µg/mL (≈ 0.114 µM) | 191 to 195 °C (dec.) |  |  | COc1c(N2C[C@]3(N)CCC[C@]3(F)C2)c(F)cc2c(=O)c(C(=O)O)cn([C@@H]3C[C@@H]3F)c12 [Example 15, 7-[(1R,5S)-1-Amino-5-fluoro-3-azabicyclo[3.3.0]octan-3-yl]-6-fluoro-1-[(1R,2S)-2-fluorocyclopropan-1-yl]-1,4-dihydro-8-methoxy-4-oxoquinoline-3-carboxylic acid] |  | 
4 | 0.025 µg/mL (≈ 0.0599 µM) | 0.025 µg/mL (≈ 0.0599 µM) | 0.1 µg/mL (≈ 0.24 µM) | 0.006 µg/mL (≈ 0.0144 µM) | 0.1 µg/mL (≈ 0.24 µM) | 0.05 µg/mL (≈ 0.12 µM) | 0.39 µg/mL (≈ 0.934 µM) | 0.025 µg/mL (≈ 0.0599 µM) | 0.78 µg/mL (≈ 1.87 µM) | 0.025 µg/mL (≈ 0.0599 µM) | 0.1 µg/mL (≈ 0.24 µM) | 0.2 µg/mL (≈ 0.479 µM) | 0.39 µg/mL (≈ 0.934 µM) | 0.05 µg/mL (≈ 0.12 µM) | 0.1 µg/mL (≈ 0.24 µM) | 206 to 208 °C |  |  | COc1c(N2C[C@H]3CC=C[C@@]3(N)C2)c(F)cc2c(=O)c(C(=O)O)cn([C@@H]3C[C@@H]3F)c12 [Example 24, 7-[(1S,5R)-1-Amino-3-azabicyclo[3.3.0]oct-7-en-3-yl]-6-fluoro-1-[(1R,2S)-2-fluorocyclopropyl]-8-methoxy-1,4-dihydro-4-oxoquinoline-3-carboxylic acid] |  | 
5 | 0.006 µg/mL (≈ 0.0143 µM) | ≤ 0.003 µg/mL | 0.1 µg/mL (≈ 0.238 µM) |  | 0.025 µg/mL (≈ 0.0596 µM) |  | 0.39 µg/mL (≈ 0.93 µM) | 0.025 µg/mL (≈ 0.0596 µM) | 0.2 µg/mL (≈ 0.477 µM) | 0.012 µg/mL (≈ 0.0286 µM) | 0.025 µg/mL (≈ 0.0596 µM) | 0.05 µg/mL (≈ 0.119 µM) | 0.39 µg/mL (≈ 0.93 µM) | 0.05 µg/mL (≈ 0.119 µM) | 0.05 µg/mL (≈ 0.119 µM) | 159 to 161 °C | ≤ 0.003 µg/mL | 0.006 µg/mL (≈ 0.0143 µM) | Cc1c(N2C[C@@H]3CCOC[C@@]3(N)C2)c(F)cc2c(=O)c(C(=O)O)cn([C@@H]3C[C@@H]3F)c12 [Example 44, 7-[(1S,6S)-1-Amino-3-oxa-8-azabicyclo[4,3,0]nonan-8-yl]-6-fluoro-1-[(1R,2S)-2-fluorocyclopropyl]-1,4-dihydro-8-methyl-4-oxoquinoline-3-carboxylic acid] |  | 
